Reference: patent US12071392B2, “Aminoadamantyl nitrate compounds and their use to treat CNS disorders” (Panorama Research, Inc., priority 2017, dated 2024)

Molecular target: T1, NMDA glutamate receptors NR1/NR2B encoded by the human GRIN1 and GRIN2B genes (Homo sapiens, UniProt Q05586+Q13224)
T1 construct: expressed in transfected cells
Assay: IonWorks Barracuda automated patch clamp, inhibition of NR1/NR2B receptors in HEK293 cells
Format: cell-based
Settings: co-application with EC50 L-glutamate, −40 mV, 8-point concentration-response, read-out: Peak current IC50
Experimental: Compounds were tested for inhibition of NMDA receptors using NMDA glutamate receptors NR1/NR2B encoded by the human GRIN1 and GRIN2B genes, expressed in HEK293 cells (originally from ATCC, Manassas, VA). Cells were maintained in tissue culture incubators, and stocks were maintained in cryogenic storage. Cells used for electrophysiology were plated in 150-mm plastic culture dishes. HEK293 cells were transfected with the appropriate ion channel or receptor cDNA(s) encoding NR1 and NR2B. Stable transfectants were selected using the G418 and Zeocin™-resistance genes incorporated into the expression plasmid. Selection pressure was maintained with G418 and Zeocin™ in the culture medium. Cells were cultured in Dulbecco's Modified Eagle Medium/Nutrient Mixture F-12 (D-MEM/F-12) supplemented with 10% fetal bovine serum, 100 U/mL penicillin G sodium, 100 μg/mL streptomycin sulfate, 100 μg/mL Zeocin™, 5 μg/mL blasticidin, and 500 μg/mL G418.
Test compounds were evaluated in 8-point concentration-response format (8 replicate wells/concentration). All test and control solutions contained 0.3% DMSO. The test article formulations were loaded in a 384-well plate using an automated liquid handling system (SciClone ALH3000, Caliper LifeScienses).
The effects of the test compounds were evaluated using the IonWorks® Barracuda™ Automated Patch Clamp System. Intracellular solution contained 50 mM CsCl, 90 mM CsF, 2 mM MgCl2, 5 mM EGTA, and 10 mM HEPES, pH 7.2. This solution was prepared in batches and stored refrigerated. In preparation for a recording session, the intracellular solution was loaded into the intracellular compartment of the PPC planar electrode. Extracellular solution (137 mM NaCl; 1.0 mM KCl; 5 mM CaCl2); 10 mM HEPES; 10 mM glucose; pH 7.4. Patch clamp measurements were made with a holding potential of −70 mV, and the potential during compound application was −40 mV. Extracellular buffer was loaded into the PPC plate wells (11 μL per well). Cell suspension was then pipetted into the wells (9 μL per well) of the PPC planar electrode. Whole-cell recording configuration was established via patch perforation with membrane currents recorded by on-board patch clamp amplifiers. […] The application consisted of two additions of 20 μL test solution containing antagonists at 10 μL/s (2 second total application time). First addition of 2× concentrated articles were preapplied for 5 minutes before the second addition of 1× concentrated articles. Data acquisition was performed via the IonWorks® Barracuda™ software, and data was analyzed using Microsoft Excel (Microsoft Corp., Redmond, WA). Concentration-response data was fitted to a Hill equation of the following form: RESPONSE=Base+[(Max−Base)/(1+(xhalf/x)^rate)] where Base is the response at low concentrations of test article, Max is the maximum response at high concentrations, xhalf is the EC50, or IC50, the concentration of test article producing either half-maximal activation or inhibition, and rate is the Hill coefficient. Nonlinear least squares fits were made assuming a simple binding model. Fits were weighted by the standard deviation. No assumptions about the fit parameters were made; the fit parameters were determined by the algorithm.

T1 sequence (Q13224 27-1484, other chains not shown): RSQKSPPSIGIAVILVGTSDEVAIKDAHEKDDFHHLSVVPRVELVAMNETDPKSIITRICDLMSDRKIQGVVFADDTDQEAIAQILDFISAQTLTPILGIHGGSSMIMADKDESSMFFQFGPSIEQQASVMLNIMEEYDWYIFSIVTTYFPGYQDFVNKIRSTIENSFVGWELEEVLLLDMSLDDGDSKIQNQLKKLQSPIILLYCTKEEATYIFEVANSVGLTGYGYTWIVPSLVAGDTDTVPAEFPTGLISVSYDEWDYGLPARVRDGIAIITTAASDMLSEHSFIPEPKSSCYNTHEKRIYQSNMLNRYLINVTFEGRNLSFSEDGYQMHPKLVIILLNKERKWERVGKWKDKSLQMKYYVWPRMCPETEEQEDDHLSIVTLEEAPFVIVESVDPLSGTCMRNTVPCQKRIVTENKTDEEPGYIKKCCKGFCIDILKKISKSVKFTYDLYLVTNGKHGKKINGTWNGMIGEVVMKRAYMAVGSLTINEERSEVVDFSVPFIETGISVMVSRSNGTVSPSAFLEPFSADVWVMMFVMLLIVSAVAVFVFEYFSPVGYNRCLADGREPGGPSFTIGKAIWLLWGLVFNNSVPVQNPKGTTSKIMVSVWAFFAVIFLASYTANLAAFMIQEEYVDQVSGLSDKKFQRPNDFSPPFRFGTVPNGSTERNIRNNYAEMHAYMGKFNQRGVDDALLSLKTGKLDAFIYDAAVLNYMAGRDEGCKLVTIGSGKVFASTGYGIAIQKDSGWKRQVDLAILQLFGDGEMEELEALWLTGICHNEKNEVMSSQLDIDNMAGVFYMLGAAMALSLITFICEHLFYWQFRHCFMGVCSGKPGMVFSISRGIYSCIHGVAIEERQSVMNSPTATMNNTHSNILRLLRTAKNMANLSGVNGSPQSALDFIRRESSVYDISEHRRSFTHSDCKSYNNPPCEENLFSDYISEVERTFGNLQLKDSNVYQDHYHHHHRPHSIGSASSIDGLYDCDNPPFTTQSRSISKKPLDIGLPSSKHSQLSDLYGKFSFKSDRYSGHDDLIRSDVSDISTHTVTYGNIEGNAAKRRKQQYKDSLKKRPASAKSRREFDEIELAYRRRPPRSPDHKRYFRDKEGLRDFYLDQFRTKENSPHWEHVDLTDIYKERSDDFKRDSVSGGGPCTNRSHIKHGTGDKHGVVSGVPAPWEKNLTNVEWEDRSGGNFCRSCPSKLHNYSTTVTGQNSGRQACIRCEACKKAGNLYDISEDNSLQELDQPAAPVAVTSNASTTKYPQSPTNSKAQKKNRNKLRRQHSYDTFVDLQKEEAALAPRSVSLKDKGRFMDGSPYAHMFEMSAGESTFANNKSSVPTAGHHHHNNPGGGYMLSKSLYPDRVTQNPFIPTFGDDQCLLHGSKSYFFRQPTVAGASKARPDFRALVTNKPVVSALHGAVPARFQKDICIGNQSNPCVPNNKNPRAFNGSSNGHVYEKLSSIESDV

Row | IC50 [µM] | Structure (SMILES)
1 | 25.9 | CCC12CC3CC(N)(C1)CC(CO[N+](=O)[O-])(C3)C2 (stereo not drawn) [NM-004, reference compound]
2 | 73.2 | NCC1(c2cccc(O[N+](=O)[O-])c2)C2CC3CC(C2)CC1C3 (stereo not drawn) [Cmpd 2]
3 | 10.1 | CCC12CC3(N)CC(CC)(C1)CC(O[N+](=O)[O-])(C3)C2 [YQW-036, Nitrosynapsin, reference compound]
4 | 11.2 | CC12CC3CC(CN)(C1)CC(O[N+](=O)[O-])(C3)C2 (stereo not drawn) [Cmpd 5]
5 | 4.59 | CC12CC3(C)CC(CN)(C1)CC(CO[N+](=O)[O-])(C2)C3 [Cmpd 1]
6 | 35.2 | NCC1(c2cccc(OCCCO[N+](=O)[O-])c2)C2CC3CC(C2)CC1C3 (stereo not drawn) [Cmpd 4]
7 | 8.01 | CCC(O[N+](=O)[O-])C12CC3(C)CC(C)(CC(CCN)(C3)C1)C2 (stereo not drawn) [Cmpd 3]

Same assay, conditions: co-application with EC50 L-glutamate, −40 mV, 8-point concentration-response, read-out: Steady state current IC50

Row | IC50 [µM] | Structure (SMILES)
8 | 21 | CCC12CC3CC(N)(C1)CC(CO[N+](=O)[O-])(C3)C2 (stereo not drawn) [NM-004, reference compound]
9 | 47.4 | NCC1(c2cccc(O[N+](=O)[O-])c2)C2CC3CC(C2)CC1C3 (stereo not drawn) [Cmpd 2]
10 | 6.8 | CCC12CC3(N)CC(CC)(C1)CC(O[N+](=O)[O-])(C3)C2 [YQW-036, Nitrosynapsin, reference compound]
11 | 7.18 | CC12CC3CC(CN)(C1)CC(O[N+](=O)[O-])(C3)C2 (stereo not drawn) [Cmpd 5]
12 | 2.62 | CC12CC3(C)CC(CN)(C1)CC(CO[N+](=O)[O-])(C2)C3 [Cmpd 1]
13 | 34.2 | NCC1(c2cccc(OCCCO[N+](=O)[O-])c2)C2CC3CC(C2)CC1C3 (stereo not drawn) [Cmpd 4]
14 | 5.08 | CCC(O[N+](=O)[O-])C12CC3(C)CC(C)(CC(CCN)(C3)C1)C2 (stereo not drawn) [Cmpd 3]

Same assay, conditions: patch clamp

Row | Structure (SMILES) | Effect on NR1/NR2B glutamate receptors (in words)
15 | CC12CC3CC(C)(C1)CC(N)(C3)C2.Cl [Memantine-HCl, Memantine, reference compound] | produced inhibition of the receptors
16 | N[C@@H](CCC(=O)O)C(=O)O [Glutamate CRC, L-glutamate, reference compound] | stimulated the receptors

Tested on: not given
Assay: not given
Settings: 7 days of infusion, 20 mg/kg/day; cited from earlier work

Row | Structure (SMILES) | whole brain concentration higher than free concentration in serum [fold]
17 | CC12CC3CC(C)(C1)CC(N)(C3)C2.Cl [Memantine-HCl, Memantine, reference compound] | 44

Same assay, conditions: 7 days of infusion, 100 mg/kg/day; cited from earlier work

Row | Structure (SMILES) | whole brain concentration higher than free concentration in serum [fold]
18 | NC12CC3CC(CC(C3)C1)C2 [amantadine] | 16
